Experimental data: article PMC6982876, “Synthesis of Novel Benzodifuranyl; 1,3,5-Triazines; 1,3,5-Oxadiazepines; and Thiazolopyrimidines Derived from Visnaginone and Khellinone as Anti-Inflammatory and Analgesic Agents” (Molecules, 2020)
Marks after values point to notes of the source that are not given here.

What was measured:
[1] = tested on: acetic acid-induced writhing in mice; assay: Acetic acid-induced writhing test (analgesic activity); assay type: in vivo; settings: 10 mg/kg p.o., n = 5; for Writhing Number in 20 min (Mean ± SEM): acetic acid 1 h after dosing; for Analgesic Activity (% protection): writhing test
Method: The analgesic activity of the compounds was performed using the writhing test as described by Gawade et al.. Mice weight ranged from 25 to 30 g. Then, mice were divided into 18 different groups, each containing five animals. The animals fasted for 8 h before the experiment. Administration of the compounds (10 mg/kg, p.o.) was performed orally. Equal doses of diclofenac as the reference drug and saline as a negative control were also administrated orally. Writhing was induced one hour after compound administration by using 0.1 mL of 1% glacial acetic acid at a volume of 0.1 mL/10 g body weight. The number of writhing responses (stretching of the abdomen, extension of hind limbs, twisting of the trunk, and elongation of the body) observed was counted for 20 min. The protection percentile against acetic acid-induced writhing was calculated according to the following formula: (1) Analgesic activity (%) =n−n′/n×100* where n is the mean number of writhes of the control group, and n’ is the mean number of writhes of the tested compound group.

ovine COX-1 = molecular target: T1, ovine COX-1 (Ovis aries, UniProt P05979); assay: In vitro COX inhibitor screening assay (EIA kit, Cayman), COX-1; assay type: biochemical; settings: mean of two determinations, enzyme kit, read-out: COX1 IC50
T1 construct: purchased Cayman Chemical, Ann Arbor, MI, USA 560131
T1 sequence (P05979 25-600): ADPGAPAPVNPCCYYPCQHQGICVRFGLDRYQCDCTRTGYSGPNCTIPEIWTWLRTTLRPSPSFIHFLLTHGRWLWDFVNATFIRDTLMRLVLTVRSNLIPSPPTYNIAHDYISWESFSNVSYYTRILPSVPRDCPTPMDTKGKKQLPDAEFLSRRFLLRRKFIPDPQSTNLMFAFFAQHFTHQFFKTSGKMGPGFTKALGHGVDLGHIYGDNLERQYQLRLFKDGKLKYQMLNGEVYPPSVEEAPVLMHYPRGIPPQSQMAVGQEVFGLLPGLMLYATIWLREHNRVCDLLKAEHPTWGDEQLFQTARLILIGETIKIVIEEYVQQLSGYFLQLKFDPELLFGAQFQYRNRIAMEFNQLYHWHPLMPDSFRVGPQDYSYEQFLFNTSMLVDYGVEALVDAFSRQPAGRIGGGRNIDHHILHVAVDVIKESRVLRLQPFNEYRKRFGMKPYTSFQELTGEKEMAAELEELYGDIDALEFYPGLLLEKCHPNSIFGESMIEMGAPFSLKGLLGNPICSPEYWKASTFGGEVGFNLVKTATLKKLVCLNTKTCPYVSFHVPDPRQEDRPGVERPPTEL
Method: (§1) Furthermore, the selectivity index for COX-2 (COX-1 IC50 / COX-2 IC50) was calculated for the compounds.

[2] = tested on: interleukin-1 beta (IL-1 β); assay: ELISA of serum interleukin-1 beta after paw edema test; assay type: in vivo, rats; settings: rat serum at the end of the paw edema test, mean ± SEM, n = 5
Method: IL1 is one of the important inflammatory mediators and is used to confirm the anti-inflammatory activities of new anti-inflammatory compounds. At the end of the paw edema test, blood samples were collected from the orbital axis of the eye under light ether anesthesia. Sera were separated after centrifugation of blood at 5000 rpm for 15 min; the sera were stored at –80 °C until the ELISA assay was performed according to the manufacturer instructions.

[3] = tested on: carrageenan-induced paw edema in rats; assay: Carrageenan-induced paw edema (anti-inflammatory activity); assay type: in vivo; settings: 10 mg/kg oral; for % Change in Paw Height (Mean ± SEM): n = 5
Method: Albino rats (150–180 g) were used. The rats were divided into 11 experimental groups of five rats each. One hour after oral administration of the compounds (10 mg/kg), 0.1 mL of 1% carrageenan solution was injected in the left hind paw of each animal. Rat paw volumes were measured with a digital caliber plethysmometer (UGO Basile, Varese, Italy) used to measure inflammation height at 0, 1, 2, and 3 h after carrageenan injection. The percentage increase in inflammation in the left hind paw, in comparison to the uninjected right hind paw, was determined, calculated, and expressed as the amount of inflammation. […] The anti-inflammatory activity of the selected analgesic compounds after 3 h was expressed as percentage inhibition of edema, which was calculated according to the following equation: (2) Inhibition of edema (%) =Vcont−Vtest/Vcont×100* where V cont is the edema volume in the control group, and V test is the edema volume in the group of the screened compound.

human recombinant COX-2 = molecular target: T2, human recombinant COX-2 (Homo sapiens, UniProt P35354); assay: In vitro COX inhibitor screening assay (EIA kit, Cayman), COX-2; assay type: biochemical; settings: for COX2 (SI) selectivity index: COX-1 IC50 / COX-2 IC50; for IC50: COX-2, mean of two determinations, enzyme kit, read-out: COX2 IC50
T2 construct: purchased Cayman Chemical, Ann Arbor, MI, USA 560131
T2 sequence (P35354 18-604): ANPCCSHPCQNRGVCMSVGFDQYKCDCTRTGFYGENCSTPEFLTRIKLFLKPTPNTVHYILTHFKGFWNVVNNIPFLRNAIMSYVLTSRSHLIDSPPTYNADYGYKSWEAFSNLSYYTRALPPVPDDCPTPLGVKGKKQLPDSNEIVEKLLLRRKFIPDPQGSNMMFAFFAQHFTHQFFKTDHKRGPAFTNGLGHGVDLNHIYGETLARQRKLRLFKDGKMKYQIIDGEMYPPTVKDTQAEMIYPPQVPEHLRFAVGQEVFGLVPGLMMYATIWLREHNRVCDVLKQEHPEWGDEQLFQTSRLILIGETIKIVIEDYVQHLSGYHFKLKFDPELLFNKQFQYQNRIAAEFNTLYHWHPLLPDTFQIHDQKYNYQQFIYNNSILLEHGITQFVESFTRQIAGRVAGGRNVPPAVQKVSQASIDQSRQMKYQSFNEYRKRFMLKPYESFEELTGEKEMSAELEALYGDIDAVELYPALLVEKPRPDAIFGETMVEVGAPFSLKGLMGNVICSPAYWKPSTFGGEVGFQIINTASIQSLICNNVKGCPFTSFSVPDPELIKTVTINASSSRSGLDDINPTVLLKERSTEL
Method: as §1

Row | Compound | melting point [°C] | Writhing Number in 20 min (Mean ± SEM) [1] | Analgesic Activity (% protection) [1] | IC50 (ovine COX-1) [nM] | IL-1 β Concentration [2] | % Change in Paw Height (Mean ± SEM) ([3]; 1 hr after carrageenan) | % Change in Paw Height (Mean ± SEM) ([3]; 2 hr after carrageenan) | Anti-Inflammatory Activity (% Inhibition of Edema) ([3]; 3 hr after carrageenan) [%] | % Change in Paw Height (Mean ± SEM) ([3]; 3 hr after carrageenan) | COX2 (SI) selectivity index (human recombinant COX-2) | IC50 (human recombinant COX-2) [nM]
1 | COc1c2ccoc2cc2oc(C3=NC4=CC(=O)N5C(=O)CSC5N4C=N3)c(C)c12 (stereo not shown) [Compound 11a, 8-(4-methoxy-3-methylbenzo[1,2-b:5,4-b`]difuran-2-yl)-2-hydro-5H,11aH-thiazolo[2’,3’: 2,3]pyrimido[1,6-a][1,3,5]triazine-3,5-dione] | > 350 | 39 ± 2.1 ^a | 36 ± 0.75 ^a % | 6850 | 43 ± 1.15 ^b Pg /mL | 0.30 ± 0.02 ^a % | 0.24 ± 0.01 ^a % | 55 | 0.28 ± 0.01 ^a % | 81 | 85
2 | COc1c2occc2c(OC)c2c(C)c(C3=NC4=CC(=O)N5C(=O)CSC5N4C=N3)oc12 (stereo not shown) [Compound 11b, 8-(4,8-dimethoxy-3-methylbenzo[1,2-b:5,4-b`]difuran-2-yl)-2-hydro-5H,11aH-thiazolo [2’, 3’:2,3]pyrimido[1,6-a][1,3,5]triazine-3,5-dione] | > 350 | 37 ± 2.3 ^a | 38 ± 0.80 ^a % | 6600 | 42 ± 0.98 ^b Pg /mL | 0.29 ± 0.01 ^a % | 0.23 ± 0.01 ^a % | 56 | 0.27 ± 0.02 ^a % | 83 | 80
3 | COc1c2ccoc2cc2oc(C3=NC4=CC(=O)N5C(=O)CSC5N4C(=O)CO3)c(C)c12 (stereo not shown) [Compound 12a, 8-(4-methoxy-3-methylbenzo[1,2-b:5,4-b`]difuran-2-yl)-5H,12aH-thiazolo[2’,3’:2,3] pyrimido[6,1-d][1,3,5]oxadiazepine-3,5,11(2H,10H)-trione] | > 350 | 35 ± 1.2 ^a | 40 ± 1.50 ^a % | 6400 | 41 ± 0.85 ^b Pg /mL | 0.28 ± 0.02 ^a % | 0.23 ± 0.01 ^a % | 57 | 0.26 ± 0.01 ^a % | 85 | 75
4 | COc1c2occc2c(OC)c2c(C)c(C3=NC4=CC(=O)N5C(=O)CSC5N4C(=O)CO3)oc12 (stereo not shown) [Compound 12b, 8-(4,8-dimethoxy-3-methylbenzo[1,2-b:5,4-b`]difuran-2-yl)-5H,12aH-thiazolo[2’,3’:2,3] pyrimido[6,1-d][1,3,5]oxadiazepine-3,5,11(2H,10H)-trione] | > 350 | 34 ± 1.7 ^a | 41 ± 1.10 ^a % | 6100 | 40 ± 0.22 ^b Pg /mL | 0.28 ± 0.01 ^a % | 0.22 ± 0.02 ^a % | 58 | 0.25 ± 0.02 ^a % | 87 | 70
5 | COc1c2ccoc2cc2oc(C3=NC4=CC(=O)N5C(=O)C(=Cc6ccccc6)SC5N4C(=O)C(=Cc4ccccc4)O3)c(C)c12 (stereo not shown) [Compound 13a, 2,10-di(benzylidene)-8-(4-methoxy-3-methylbenzo[1,2-b:5,4-b`]difuran-2-yl)-5H,12aH-thiazolo[2’,3’:2,3]pyrimido[6,1-d][1,3,5]oxadiazepine-3,5,11(2H,10H)-trione] | > 350 | 33 ± 1.9 ^a | 42 ± 1.90 ^a % | 5790 | 39 ± 0.31 ^b Pg /mL | 0.27 ± 0.02 ^a % | 0.21 ± 0.01 ^a % | 59 | 0.24 ± 0.01 ^a % | 90 | 64
